Read-outs that look alike come from different tables or passages of the source.
Legend:
[1] = system: CQ-resistant (W-2) strain of P. falciparum; test: 3H-adenosine incorporation, chloroquine-resistant P. falciparum; assay type: cell-based; conditions: for Ratio (S/R): IC50 against sensitive strain divided by IC50 for resistant strain
Protocol: (§1) Chloroquine and qinghaosu are commonly used antimalarial drugs.
(§2) The dose (IC50) of each drug or each drug combination required to effect a 50% inhibition in the malarial activity of each strain was determined by establishing a dose response curve for each.
(§3) FCMSU1/Sudan strain and cloned Indochina (W-2) strain of P. falciparum were used. […] The two strains of the parasite were cultured according to the candle jar method of Trager and Jensen, Science, Vol. 193, pages 673-675 (1976). In a given experiment, four-day-old Petri dish cultures (approximately 10% parasitemia) were diluted with medium containing an amount of noninfected type A human erythrocytes to obtain a culture with a final hematocrit of 1.5% and parasitemia of 0.5-1.0%. The resulting culture was ready for addition to microtitration plates with ninety-six flat-bottom wells.
(§4) The testing procedure used was similar to that described by Desjardins et al. in “Antimicrobial Agents and Chemotherapy,” Vol. 16, pages 710-718 (1979). […] 25 microliters radioactive (0.5 microCi) [2,8-^3H] adenosine. The microtitration plates were incubated in a candle jar for an additional 18 hours, at 37° C.
(§5) As the malaria parasite grows ^3H-adenosine is metabolized and incorporates into polymeric RNA and DNA. The labeled polymers are trapped on glass fiber filters and unincorporated material is washed away. In the absence of drug there is 100% incorporation of the labeled material. When drugs interfere (directly or indirectly), an inhibitory dose of 50% (IC50) can be calculated. The experiments were repeated three times except where noted. Statistical analysis was done using Student's T-test for significance. Van Kyke et al. “Exp. Parasitol,” Vol. 64, pages 418-423 (1987).
(§6) The test procedure was basically the same as outlined above.

[2] = system: CQ-sensitive (FCMSU1/Sudan) strain of P. falciparum; test: 3H-adenosine incorporation, chloroquine-sensitive P. falciparum; assay type: cell-based
Protocol: as §1, §2, §3, §4, §5, §6

DX20 cancer cells = test: modified MTT assay, drug sensitivity of DX20 cells; assay type: cell-based, human; conditions: DX20 cells
Source text: The MES-SA/DX20 cell line was established according to the development methods of Sikic et al., Resistance to Antineoplastic Drugs, Chap. 3, CRC Press, Ed. David Kessel, pp. 37-47 (1989). In vitro drug sensitivity testing consisted of two assay models, the modified MTT assay (Mossman, J. Immunolog. Methods, Vol. 65, pp. 55-63, 1983) and the colonogenic assay. In addition to this, the combinations were investigated in vivo in nude mice bearing the DX20 cell line. The MTT assay was chosen because of its practical advantages in large-scale screening. The assay involved cellular conversion of tetrazolium salt to a colored formazan serving as a measurement of cell viability.
In a given experiment, culture media, 50 microliters, containing 8,000-25,000 cells, depending on the proliferation rate of the cell line, was pipetted into each well of several 96-well microtiter plates. The cells were allowed to attach overnight. […] The cytotoxic drug, also at a concentration below that previously established as an IC50, was then added at decreasing concentrations by 25% to several half plate sections. The cells were allowed to grown for 72 hours. 100 microliters of media was then removed and 25 microliters of 5 mg/ml MTT (Sigma, St. Louis, Mo.) in phosphate buffered saline was added to each well. The plates were kept in an incubator at 37° C. and 5% CO2. After 2-3 hours of incubation, the extraction buffer containing 20% w/v SDS and 50% DMF was added and the plates again incubated overnight. The plates were read at a test wavelength of 570 nm on a multiwell spectrophotometer (Model MR 700, Dynatech Laboratories, Alexandria, Va.). Each drug combination was tested in triplicate. Percent survival was defined as percent of optical density (OD) of the drug-treated wells to that of the control detected by the spectrophotometer.
The in vitro drug sensitivity testing of ethyl fangchinoline consisted of two assay models, the modified MTT (Mossman 1983) and a colony formation assay in which a direct measure was taken by quantitation of colony formation. The MTT assay was chosen because of its practical advantages in large scale screening. The assay involves cellular conversion of tetrozolium salt to a colored formazan serving as a measurement of cell viability.
Two human cell lines were chosen as the primary targets of study in reversing multiple-drug resistance. The MES-SA, a sarcoma, and its resistant subline, DX-20, were kindly donated by Dr. B. Sikic (U of Stanford, Stanford, Calif.). The A2780, an ovarian cancer, and its resistant subline, A2780-ad10, were provided by Roswell Park Memorial Inst. (Buffalo, N.Y.).
Culture media, 50 ul containing 8,000 to 25,000 cells depending on the proliferation rate of the line, was pipetted into each of 96 wells in a flat bottom tissue plate. The cells were incubated overnight to allow adherence. One hundred ul of ethyl fangchinoline, at a concentration below that previously established as an independent IC50, was added to each experimental well. […] The plates were then incubated for 72 hours before MTT was added and the analysis of O.D. values interpreted by a multi-plate scanner (MR700, Dynatech).

[3] = system: resistant (K562-R7) cancel cells; test: doxorubicin fluorescence test by flow cytometry; assay type: cell-based; conditions: FIG. 12; doxorubicin used alone
DX20 tumor = test: tumor measurements in nude mice bearing the DX20 tumor; assay type: in vivo; design: unit not given here
Protocol: (See FIG. 6). Tumor size was calculated using the formula (4 Pi/3) X*Y*2Z.
The study was done with 3-4 week old male balb-C nude mice. The animals were injected with DX20 1×10^7 cells.

[4] = system: multidrug resistant human cancer (DX20); assay type: in vivo, mice; conditions: d-tetrandrine 0.5, 1, 1.5 mg injections; doxorubicin 5.5 mg per kg; about one month
Protocol: It is only important that they be administered sufficiently close together that the cancer is exposed to both simultaneously. For example, nude mice infected with a multidrug resistant human cancer were given 0.5 mg, 1 mg and 1.5 mg respectively in three separate injections, 72 hours apart.

[5] = Table VII, chloroquine-resistant strain, drug alone, read-out: IC50 R
[6] = Table VII, chloroquine-sensitive strain, drug alone, read-out: IC50 S
[7] = Plasmodium falciparum, read-out: IC50 R
[8] = Plasmodium falciparum, read-out: IC50 S
[9] = Plasmodium falciparum, read-out: IC50 DRUG COMBINATION TT(1.0 uM) CQ(0.3 uM)
[10] = Plasmodium falciparum, read-out: IC50 DRUG COMBINATION TT(2.0 uM) CQ(0.2 uM)
[11] = Plasmodium falciparum, read-out: IC50 DRUG COMBINATION TT(3.0 uM) CQ(0.1 uM)
[12] = Plasmodium falciparum, read-out: IC50 SINGLE DRUG
[13] = Day 7 Prior to Treatment (baseline)
[14] = Day 24 After Treatment, d-tetrandrine days 6, 8, 10, doxorubicin 5.5 mg/kg day 12

Compound: COc1cc(C[C@H]2c3cc(OC)c(OC)cc3CCN2C)c(Oc2cc3c(cc2OC)-c2c(OC)c(OC)cc4c2[C@H](C3)N(C)CC4)cc1OC [TH, thalicarpine]
- Ratio (S/R) [1]: 1.3
- IC50 ([1]; Plasmodium falciparum, Table VII, chloroquine-resistant strain, drug alone, read-out: IC50 R): 1300 nM
- IC50 ([2]; Plasmodium falciparum, Table VII, chloroquine-sensitive strain, drug alone, read-out: IC50 S): 1700 nM

Compound: COc1ccc2cc1Oc1ccc(cc1)C[C@@H]1c3cc(c(OC)cc3CCN1C)Oc1c(OC)c(OC)cc3c1[C@H](C2)N(C)CC3 [IT, isotetrandrine]
- IC50 [1, 5]: 140 nM
- IC50 [2, 6]: 480 nM

Compound: COc1cc(C[C@H]2c3cc(OC)c(OC)c(OC)c3CCN2C)c(Oc2cc3c(cc2OC)-c2c(OC)c(OC)c(OC)c4c2[C@H](C3)N(C)CC4)cc1OC [ME, methoxadiantifoline]
- Ratio (S/R) [1]: 5.5
- IC50 [1, 7]: 970 nM
- effectiveness against resistant versus sensitive malarial strain ([1]; conclusion from Table VII): substantially more effective against the chloroquine resistant malarial strain than against the chloroquine sensitive malarial strain
- IC50 [2, 8]: 5300 nM

Compound: COc1cc2c3cc1Oc1c(OC)c(OC)cc4c1[C@@H](Cc1ccc(O)c(c1)Oc1ccc(cc1)C[C@@H]3N(C)CC2)N(C)CC4 [BB, berbamine]
- Ratio (S/R) [1]: 2.7
- IC50 [1, 5]: 190 nM
- IC50 [2, 6]: 460 nM

Compound: COc1cc2c3cc1Oc1c(O)c(OC)cc4c1[C@@H](Cc1ccc(O)c(c1)Oc1ccc(cc1)C[C@@H]3N(C)CC2)N(C)CC4 [OB, obamegine]
- Ratio (S/R) [1]: 1.5
- IC50 [1, 5]: 480 nM
- IC50 [2, 6]: 660 nM

Compound: cycleanine
- Ratio (S/R) [1]: 0.8
- IC50 [1, 5]: 4200 nM
- IC50 [2, 6]: 3200 nM

Compound: ethyl fangchinoline
- IC50 (DX20 cancer cells; single agent, read-out: IC50 alone): 6500 nM

Compound: C[C@@H]1CC[C@H]2[C@@H](C)C(=O)O[C@@H]3O[C@@]4(C)CC[C@@H]1[C@]32OO4 [QHS, qinghaosu]
- IC50 ([1]; R STRAIN, TT/QHS 10:1, mean ± S.D, read-out: IC50 DRUG COMBINATION TT(2.0 uM) QHS(0.2 uM)): 7.2 ± 1.4 nM
- IC50 ([1]; Table IV, R STRAIN, mean ± S.D, read-out: IC50 SINGLE DRUG): 47.8 ± 14.5 nM
- IC50 ([1]; read-out: IC50 DRUG COMBINATION TT(1.0 uM) QHS(0.3 uM), R STRAIN, TT/QHS 10:3, mean ± S.D): 17.9 ± 4.1 nM
- IC50 ([1]; read-out: IC50 DRUG COMBINATION TT(3.0 uM) QHS(0.1 uM), R STRAIN, TT/QHS 30:1, mean ± S.D): 4.6 ± 1.4 nM
- IC50 ([2]; S STRAIN, TT/QHS 10:1, mean ± S.D, read-out: IC50 DRUG COMBINATION TT(2.0 uM) QHS(0.2 uM)): 11.4 ± 0.6 nM
- IC50 ([2]; Table IV, S STRAIN, mean ± S.D, read-out: IC50 SINGLE DRUG): 36.7 ± 4.7 nM
- IC50 ([2]; read-out: IC50 DRUG COMBINATION TT(1.0 uM) QHS(0.3 uM), S STRAIN, TT/QHS 10:3, mean ± S.D): 21.6 ± 2.7 nM
- IC50 ([2]; read-out: IC50 DRUG COMBINATION TT(3.0 uM) QHS(0.1 uM), S STRAIN, TT/QHS 30:1, mean ± S.D): 7.3 ± 1.2 nM

Compound: COc1ccc2cc1Oc1ccc(cc1)C[C@H]1c3c(cc4c(c3Oc3cc5c(cc3OC)CCN(C)[C@@H]5C2)OCO4)CCN1C [CE, cepharanthine]
- Ratio (S/R) [1]: 1.1
- IC50 [1, 7]: 940 nM
- IC50 [2, 8]: 1000 nM

Compound: CCN(CC)CCCC(C)Nc1ccnc2cc(Cl)ccc12 (stereo not shown) [CQ, chloroquine]
- lowering of the IC50 of chloroquine ([1]; 3.0 micromolar d-tetrandrine added to 0.1 micromolar chloroquine): 43 Fold
- IC50 [1, 9]: 23.8 ± 4.1 nM
- IC50 [1, 10]: 8 ± 1.6 nM
- IC50 [1, 11]: 4.2 ± 0.3 nM
- IC50 [1, 12]: 186 ± 4.9 nM
- IC50 [2, 9]: 16.5 ± 2.1 nM
- IC50 [2, 10]: 11.4 ± 2.3 nM
- IC50 [2, 11]: 7.4 ± 1.3 nM
- IC50 [2, 12]: 26.7 ± 3.8 nM

Compound: COc1ccc2cc1Oc1ccc(cc1)C[C@H]1c3cc(c(OC)cc3CCN1C)Oc1c(O)c(OC)cc3c1[C@H](C2)N(C)CC3 [TA, fangchinoline]
- Ratio (S/R) [1]: 1.2
- IC50 [1, 5]: 220 nM
- IC50 [2, 6]: 260 nM

Compound: COc1cc2c3cc1Oc1c(OC)c(OC)cc4c1[C@@H](Cc1ccc(O)c(c1)Oc1ccc(cc1)C[C@H]3N(C)CC2)N(C)CC4 [PY, pycnamine]
- Ratio (S/R) [1]: 0.9
- IC50 [1, 5]: 420 nM
- IC50 [2, 6]: 380 nM

Compound: COc1ccc2cc1Oc1ccc(cc1)C[C@@H]1c3cc(c(OC)cc3CCN1C)Oc1c(OC)c(OC)cc3c1[C@@H](C2)N(C)CC3 [PH, phacanthine]
- IC50 [1, 5]: 500 nM
- IC50 [2, 6]: 600 nM

Compound: COc1ccc2cc1Oc1ccc(cc1)C[C@H]1c3cc(c(OC)cc3CCN1C)Oc1c(OC)c(OC)c(OC)c3c1[C@H](C2)N(C)CC3 [HE, hernandezine]
- Ratio (S/R) [1]: 2.8
- IC50 [1, 5]: 130 nM
- IC50 [2, 6]: 370 nM

Compound: COc1cccc2c1C(=O)c1c(O)c3c(c(O)c1C2=O)C[C@@](O)(C(=O)CO)C[C@@H]3O[C@H]1C[C@H](N)[C@H](O)[C@H](C)O1 [doxorubicin]
- IC50 (DX20 cancer cells; Homo sapiens, d-tetrandrine 2 × 10^−7 molar, read-out: IC50 doxorubicin in d-tetrandrine): 660 nM
- IC50 (DX20 cancer cells; Homo sapiens, d-tetrandrine 4 × 10^−7 molar, read-out: IC50 doxorubicin in d-tetrandrine): 360 nM
- IC50 (DX20 cancer cells; Homo sapiens, ethyl fangchinoline 1 × 10^−6 molar, read-out: IC50 doxorubicin in ethyl fangchinoline): 480 nM
- IC50 (DX20 cancer cells; Homo sapiens, ethyl fangchinoline 2 × 10^−7 molar, read-out: IC50 doxorubicin in ethyl fangchinoline): 470 nM
- IC50 (DX20 cancer cells; Homo sapiens, ethyl fangchinoline 4 × 10^−7 molar, read-out: IC50 doxorubicin in ethyl fangchinoline): 160 nM
- IC50 (DX20 cancer cells; Homo sapiens, single agent, read-out: IC50 alone): 5400 nM
- doxorubicin concentration (fluorescence) in resistant versus sensitive cells [3]: lower concentration of doxorubicin than does a sensitive cancer
- Tumor Measurements Depth (DX20 tumor; [13]): 1.25
- Tumor Measurements Length (DX20 tumor; [13]): 3.50
- Tumor Measurements Width (DX20 tumor; [13]): 3.87
- Tumor Measurements Depth (DX20 tumor; [14]): 21.50
- Tumor Measurements Length (DX20 tumor; [14]): 24.50
- Tumor Measurements Width (DX20 tumor; [14]): 19.10
- tumor outcome [4]: very large tumors which were unabated
